Laboratory results: patent US9656988B2 (Pharmacyclics LLC, priority 2013, dated 2017)
Where two headings read alike, the source gives them in different places.

Target: BTK (Homo sapiens (Human), UniProt Q06187)
Assay: Btk in vitro inhibitory activity (one of Method A TR-FRET, Method B electrophoretic mobility shift, Method C radiometric filter binding)
Assay type: biochemical
[1] = determined using one of the methods of Example 355a, 355b and 355c, read-out: BTK IC50

Chain of BTK (Q06187 whole entry): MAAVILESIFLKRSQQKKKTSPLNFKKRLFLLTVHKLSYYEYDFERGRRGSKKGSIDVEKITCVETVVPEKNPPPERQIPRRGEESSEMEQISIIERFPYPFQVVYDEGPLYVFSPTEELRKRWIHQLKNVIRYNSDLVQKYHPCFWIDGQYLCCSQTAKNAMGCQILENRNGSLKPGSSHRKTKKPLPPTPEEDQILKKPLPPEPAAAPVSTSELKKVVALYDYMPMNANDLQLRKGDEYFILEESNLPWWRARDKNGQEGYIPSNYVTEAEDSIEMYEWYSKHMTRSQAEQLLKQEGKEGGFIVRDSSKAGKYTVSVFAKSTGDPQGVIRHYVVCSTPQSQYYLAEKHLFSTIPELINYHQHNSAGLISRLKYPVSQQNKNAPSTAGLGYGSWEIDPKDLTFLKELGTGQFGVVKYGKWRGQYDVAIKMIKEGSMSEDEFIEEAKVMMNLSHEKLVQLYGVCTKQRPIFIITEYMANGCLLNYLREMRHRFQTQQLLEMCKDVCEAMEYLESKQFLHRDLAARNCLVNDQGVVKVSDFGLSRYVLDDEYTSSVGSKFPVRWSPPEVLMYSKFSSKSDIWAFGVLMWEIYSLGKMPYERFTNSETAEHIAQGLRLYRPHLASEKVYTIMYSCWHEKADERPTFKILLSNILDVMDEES

Row | Compound | IC50 [1] [µM] | other results
1 | CC(C)(C)c1ccc(C(=O)N[C@@H]2CCN(c3nnc(C(N)=O)c(Nc4ccc(C(=O)N5CCOCC5)cc4)n3)C2)cc1 [Example 49, (R)-3-(3-(4-tert-butylbenzamido)pyrrolidin-1-yl)-5-(4-(morpholine-4-carbonyl)phenylamino)-1,2,4-triazine-6-carboxamide] | 0.1 to 1 | 
2 | NC(=O)c1nnc(N2CC[C@@H](NC(=O)c3ccccc3)C2)nc1Nc1ccc(C(=O)N2CCOCC2)cc1 [Example 50, (R)-3-(3-benzamidopyrrolidin-1-yl)-5-(4-(morpholine-4-carbonyl)phenylamino)-1,2,4-triazine-6-carboxamide] | 0.1 to 1 | 
3 | NC(=O)c1nnc(N2CC[C@@H](NC(=O)C(F)(F)F)C2)nc1Nc1ccc(C(=O)N2CCOCC2)cc1 [Example 51, (R)-5-(4-(morpholine-4-carbonyl)phenylamino)-3-(3-(2,2,2-trifluoroacetamido)pyrrolidin-1-yl)-1,2,4-triazine-6-carboxamide] | 0.1 to 1 | 
4 | CC(C)(C)c1ccc(C(=O)N[C@@H]2CCCN(c3nnc(C(N)=O)c(Nc4cncc(F)c4)n3)C2)cc1 [Example 52, (R)-3-(3-(4-tert-butylbenzamido)piperidin-1-yl)-5-(5-fluoropyridin-3-ylamino)-1,2,4-triazine-6-carboxamide] | 0.1 to 1 | 
5 | Cc1ccc(Nc2nc(N3CCC[C@@H](NC(=O)c4ccc(C(C)(C)C)cc4)C3)nnc2C(N)=O)cc1 [Example 53, (R)-3-(3-(4-tert-butylbenzamido)piperidin-1-yl)-5-(p-tolylamino)-1,2,4-triazine-6-carboxamide] | 1 to 10 | 
6 | Cc1cccc(Nc2nc(N3CCC[C@@H](NC(=O)c4ccc(C(C)(C)C)cc4)C3)nnc2C(N)=O)c1 [Example 54, (R)-3-(3-(4-tert-butylbenzamido)piperidin-1-yl)-5-(m-tolylamino)-1,2,4-triazine-6-carboxamide] | 1 to 10 | 
7 | CC(C)(C)c1ccc(C(=O)N[C@@H]2CCCN(c3nnc(C(N)=O)c(Nc4ccc(S(C)(=O)=O)cc4)n3)C2)cc1 [Example 55, (R)-3-(3-(4-tert-butylbenzamido)piperidin-1-yl)-5-(4-(methylsulfonyl)phenylamino)-1,2,4-triazine-6-carboxamide] | < 0.01 | IC50: 0.01 to 0.1 µM
8 | CC(C)(C)c1ccc(C(=O)N[C@@H]2CCCN(c3nnc(C(N)=O)c(Nc4ccc(-c5ncccn5)cc4)n3)C2)cc1 [Example 56, (R)-3-(3-(4-tert-butylbenzamido)piperidin-1-yl)-5-(4-(pyrimidin-2-yl)phenylamino)-1,2,4-triazine-6-carboxamide] | 0.1 to 1 | 
9 | CC(C)(C)c1ccc(C(=O)N[C@@H]2CCCN(c3nnc(C(N)=O)c(Nc4cccc(-c5ncccn5)c4)n3)C2)cc1 [Example 57, (R)-3-(3-(4-tert-butylbenzamido)piperidin-1-yl)-5-(3-(pyrimidin-2-yl)phenylamino)-1,2,4-triazine-6-carboxamide] | 0.1 to 1 | 
10 | CC(C)(C)c1ccc(C(=O)N[C@@H]2CCCN(c3nnc(C(N)=O)c(Nc4ccc(-c5ncco5)cc4)n3)C2)cc1 [Example 58, (R)-3-(3-(4-tert-butylbenzamido)piperidin-1-yl)-5-(4-(oxazol-2-yl)phenylamino)-1,2,4-triazine-6-carboxamide] | 0.01 to 0.1 | 
11 | NC(=O)c1nnc(N2CCC[C@@H](NC(=O)N3CCOCC3)C2)nc1Nc1ccc(-c2ncco2)cc1 [Example 59, (R)—N-(1-(6-carbamoyl-5-(4-(oxazol-2-yl)phenylamino)-1,2,4-triazin-3-yl)piperidin-3-yl)morpholine-4-carboxamide] | 0.01 to 0.1 | 
12 | CC(C)(C)OC(=O)N1CCC[C@@H](Nc2nnc(C(N)=O)c(Nc3ccc(C(=O)N4CCOCC4)cc3)n2)C1 [Example 60, (R)-tert-butyl 3-(6-carbamoyl-5-(4-(morpholine-4-carbonyl)phenylamino)-1,2,4-triazin-3-ylamino)piperidine-1-carboxylate] | 0.1 to 1 | 
13 | NC(=O)c1nnc(N[C@@H]2CCCNC2)nc1Nc1ccc(C(=O)N2CCOCC2)cc1 [Example 61, (R)-5-(4-(morpholine-4-carbonyl)phenylamino)-3-(piperidin-3-ylamino)-1,2,4-triazine-6-carboxamide] | 1 to 10 | 
14 | CC(C)(C)c1ccc(C(=O)N2CCC[C@@H](Nc3nnc(C(N)=O)c(Nc4ccc(C(=O)N5CCOCC5)cc4)n3)C2)cc1 [Example 62, (R)-3-(1-(4-tert-butylbenzoyl)piperidin-3-ylamino)-5-(4-(morpholine-4-carbonyl)phenylamino)-1,2,4-triazine-6-carboxamide] | 0.01 to 0.1 | 
15 | CCC(=O)N1CCC[C@@H](Nc2nnc(C(N)=O)c(Nc3ccc(C(=O)N4CCOCC4)cc3)n2)C1 [Example 63, (R)-5-(4-(morpholine-4-carbonyl)phenylamino)-3-(1-propionylpiperidin-3-ylamino)-1,2,4-triazine-6-carboxamide] | < 0.01 | 
16 | NC(=O)c1nnc(N[C@@H]2CCCN(C(=O)C3CC3)C2)nc1Nc1ccc(C(=O)N2CCOCC2)cc1 [Example 64, (R)-3-(1-(cyclopropanecarbonyl)piperidin-3-ylamino)-5-(4-(morpholine-4-carbonyl)phenylamino)-1,2,4-triazine-6-carboxamide] | < 0.01 | 
17 | C=CC(=O)N1CCC[C@@H](Nc2nnc(C(N)=O)c(Nc3ccc(C(=O)N4CCOCC4)cc3)n2)C1 [Example 65, (R)-3-(1-acryloylpiperidin-3-ylamino)-5-(4-(morpholine-4-carbonyl)phenylamino)-1,2,4-triazine-6-carboxamide] | < 0.01 | 
18 | CN(C)C/C=C/C(=O)N1CCC[C@@H](Nc2nnc(C(N)=O)c(Nc3ccc(C(=O)N4CCOCC4)cc3)n2)C1 [Example 66, (R,E)-3-(1-(4-(dimethylamino)but-2-enoyl)piperidin-3-ylamino)-5-(4-(morpholine-4-carbonyl)phenylamino)-1,2,4-triazine-6-carboxamide] | < 0.01 | 
19 | CN(C/C=C/C(=O)N1CCC[C@@H](Nc2nnc(C(N)=O)c(Nc3ccc(C(=O)N4CCOCC4)cc3)n2)C1)C1CC1 [Example 67, (R,E)-3-(1-(4-(cyclopropyl(methyl)amino)but-2-enoyl)piperidin-3-ylamino)-5-(4-(morpholine-4-carbonyl)phenylamino)-1,2,4-triazine-6-carboxamide] | < 0.01 | 
20 | CC(C)(C)OC(=O)N1CC[C@@H](Nc2nnc(C(N)=O)c(Nc3ccc(C(=O)N4CCOCC4)cc3)n2)C1 [Example 68, (R)-tert-butyl 3-(6-carbamoyl-5-(4-(morpholine-4-carbonyl)phenylamino)-1,2,4-triazin-3-ylamino)pyrrolidine-1-carboxylate] | 0.1 to 1 | 
21 | NC(=O)c1nnc(N[C@@H]2CCNC2)nc1Nc1ccc(C(=O)N2CCOCC2)cc1 [Example 69, (R)-5-(4-(morpholine-4-carbonyl)phenylamino)-3-(pyrrolidin-3-ylamino)-1,2,4-triazine-6-carboxamide] | 0.01 to 0.1 | 
22 | CN(C/C=C/C(=O)N1CC[C@@H](Nc2nnc(C(N)=O)c(Nc3ccc(C(=O)N4CCOCC4)cc3)n2)C1)C1CC1 [Example 71, (R,E)-3-(1-(4-(cyclopropyl(methyl)amino)but-2-enoyl)pyrrolidin-3-ylamino)-5-(4-(morpholine-4-carbonyl)phenylamino)-1,2,4-triazine-6-carboxamide] | 0.01 to 0.1 | 
23 | CC(C)(C)c1ccc(C(=O)N[C@@H]2CCCN(c3cnc(C(N)=O)c(Nc4ccc(C(=O)N5CCOCC5)cc4)n3)C2)cc1 [Example 73, (R)-5-(3-(4-tert-butylbenzamido)piperidin-1-yl)-3-(4-(morpholine-4-carbonyl)phenylamino)pyrazine-2-carboxamide] | < 0.01 | 
24 | C=CC(=O)N1CCC[C@@H](N(C)c2cnc(C(N)=O)c(Nc3ccc(C(=O)N4CCOCC4)cc3)n2)C1 [Example 74, (R)-5-((1-acryloylpiperidin-3-yl)(methyl)amino)-3-(4-(morpholine-4-carbonyl)phenylamino)pyrazine-2-carboxamide] | < 0.01 | IC50 (read-out: Btk (IC50)): < 0.01 µM
25 | CN(C)C/C=C/C(=O)N1CCC[C@@H](N(C)c2cnc(C(N)=O)c(Nc3ccc(C(=O)N4CCOCC4)cc3)n2)C1 [Example 75, (R,E)-5-((1-(4-(dimethylamino)but-2-enoyl)piperidin-3-yl)(methyl)amino)-3-(4-(morpholine-4-carbonyl)phenylamino)pyrazine-2-carboxamide] | < 0.01 | 
26 | CC(C)(C)c1ccc(C(=O)N[C@@H]2CCCN(c3cnc(C(N)=O)c(Nc4ccc(C(=O)N5CCOCC5)cc4)c3)C2)cc1 [Example 76, (R)-5-(3-(4-tert-butylbenzamido)piperidin-1-yl)-3-(4-(morpholine-4-carbonyl)phenylamino)picolinamide] | 0.1 to 1 | 
27 | Cc1cc(Nc2cc(N3CCC[C@@H](NC(=O)c4ccc(C(C)(C)C)cc4)C3)cnc2C(N)=O)sn1 [Example 77, (R)-5-(3-(4-tert-butylbenzamido)piperidin-1-yl)-3-(3-methylisothiazol-5-ylamino)picolinamide] | 0.01 to 0.1 | 
28 | CC(C)(C)c1ccc(NC(=O)N[C@@H]2CCCN(c3nnc(C(N)=O)c(Nc4ccc(C(=O)N5CCOCC5)cc4)n3)C2)cc1 [Example 79, (R)-3-(3-(3-(4-tert-butylphenyl)ureido)piperidin-1-yl)-5-(4-(morpholine-4-carbonyl)phenylamino)-1,2,4-triazine-6-carboxamide] | 0.01 to 0.1 | IC50 (Btk (IC50)): 0.01 to 0.1 µM
29 | COc1ccc(NC(=O)N[C@@H]2CCCN(c3nnc(C(N)=O)c(Nc4ccc(C(=O)N5CCOCC5)cc4)n3)C2)cc1 [Example 80, (R)-3-(3-(3-(4-methoxyphenyl)ureido)piperidin-1-yl)-5-(4-(morpholine-4-carbonyl)phenylamino)-1,2,4-triazine-6-carboxamide] | 0.01 to 0.1 | IC50 (Btk (IC50)): 0.01 to 0.1 µM
30 | CN(C)C(=O)N[C@@H]1CCCN(c2nnc(C(N)=O)c(Nc3ccc(C(=O)N4CCOCC4)cc3)n2)C1 [Example 81, (R)-3-(3-(3,3-dimethylureido)piperidin-1-yl)-5-(4-(morpholine-4-carbonyl)phenylamino)-1,2,4-triazine-6-carboxamide] | 0.01 to 0.1 | IC50 (Btk (IC50)): 0.01 to 0.1 µM
